Data: US11912693B2, “Compounds for modulating S1P1 activity and methods of using the same” (TREVENA, INC., priority 2017, dated 2024)

Assays:
[1] = molecular target: T1, human sphingosine-1-phosphate receptor 1 (S1P1) (Homo sapiens (Human), UniProt P21453); test: Inhibition of cAMP production (HTRF cAMP HiRange), S1P1 CHO-K1 cells; assay type: cell-based; settings: for Emax: CHO-K1, efficacy (SPAN) normalized to fingolimod, read-out: hS1P1 cAMP SPAN; for hS1P1 cAMP pEC50: inhibition of cAMP production, S1P1 CHO-K1 cells
Procedure, shortened: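 CHO-K1 cells stably co-expressing human S1P1 (C-terminal Prolink tag) and EA-β-arrestin2 were grown in AssayComplete Media 6 at 37° C. and 5% CO2, plated, and incubated overnight. Agonist-driven inhibition of intracellular cAMP was read by TR-FRET with the HTRF cAMP HiRange kit on a PheraStar reader. Potency is pEC50, and efficacy (SPAN) is normalized to fingolimod.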
Target sequence in this assay (P21453 whole entry, looked up): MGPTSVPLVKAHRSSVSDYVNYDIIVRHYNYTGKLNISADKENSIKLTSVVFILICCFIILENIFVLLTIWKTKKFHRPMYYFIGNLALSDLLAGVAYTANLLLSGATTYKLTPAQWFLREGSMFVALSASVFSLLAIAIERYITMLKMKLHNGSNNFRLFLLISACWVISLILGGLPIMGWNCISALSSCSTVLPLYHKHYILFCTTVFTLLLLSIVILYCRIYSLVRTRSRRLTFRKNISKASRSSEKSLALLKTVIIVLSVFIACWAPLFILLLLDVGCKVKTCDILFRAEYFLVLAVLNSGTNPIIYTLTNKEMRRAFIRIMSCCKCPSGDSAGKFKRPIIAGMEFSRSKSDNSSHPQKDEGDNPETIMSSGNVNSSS

[2] = molecular target: T1, human sphingosine-1-phosphate receptor 1 (S1P1); test: β-Arrestin2 recruitment assay (PathHunter), S1P1 CHO-K1 cells; assay type: cell-based; settings: for Emax: CHO-K1, efficacy (SPAN) normalized to fingolimod, read-out: hS1P1 B-arrestin2 SPAN; for hS1P1 B-arrestin2 pEC50: β-arrestin2 recruitment, S1P1 CHO-K1 cells
Procedure, shortened: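 Enzyme-fragment complementation read-out: agonist-driven β-arrestin2 binding to ProLink-tagged human S1P1 in stable CHO-K1 cells restores β-galactosidase, measured 1 h at room temperature after a 60 min 37° C. compound incubation. Potency as pEC50, efficacy relative to fingolimod (SPAN).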
Target sequence in this assay (P21453 whole entry, looked up): as above
Target sequence in this assay (P32121 whole entry partner, looked up): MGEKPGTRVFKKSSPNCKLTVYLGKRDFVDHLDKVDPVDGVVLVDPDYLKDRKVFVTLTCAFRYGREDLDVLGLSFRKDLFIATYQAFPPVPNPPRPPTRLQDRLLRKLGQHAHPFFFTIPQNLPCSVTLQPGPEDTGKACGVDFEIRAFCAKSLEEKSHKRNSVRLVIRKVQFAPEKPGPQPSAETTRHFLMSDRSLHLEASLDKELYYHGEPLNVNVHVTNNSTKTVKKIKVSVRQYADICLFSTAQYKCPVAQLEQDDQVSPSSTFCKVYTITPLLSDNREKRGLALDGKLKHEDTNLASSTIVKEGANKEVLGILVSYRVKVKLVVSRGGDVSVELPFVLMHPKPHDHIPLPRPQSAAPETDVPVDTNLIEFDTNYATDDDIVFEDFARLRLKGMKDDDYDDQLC

Row | SMILES | Emax [1] | hS1P1 cAMP pEC50 [1] | Emax [2] | hS1P1 B-arrestin2 pEC50 [2]
1 | CC(C)n1ccc2cc(-c3nc(-c4ccccc4Cl)no3)ccc21 [Compound 320, 3-(2-chlorophenyl)-5-(1-isopropyl-1H-indol-5-yl)-1,2,4-oxadiazole] | > 75% | >6.5 | > 75% | >5
2 | COc1cccc(OC)c1-c1noc(-c2ccc3c(ccn3C(C)C)c2)n1 [Compound 325, 3-(2,6-dimethoxyphenyl)-5-(1-isopropylindol-5-yl)-1,2,4-oxadiazole] | < 75% | <6.5 | < 75% | <5
3 | CC(C)n1ccc2cc(-c3nc(-c4cccc5c4OCO5)no3)ccc21 [Compound 326, 3-(benzo[d][1,3]dioxol-4-yl)-5-(1-isopropyl-1H-indol-5-yl)-1,2,4-oxadiazole] | > 75% | <6.5 | > 75% | >5
4 | CC(C)n1ccc2cc(-c3nc(-c4cccc5c4OCCC5)no3)ccc21 [Compound 327, 3-chroman-8-yl-5-(1-isopropylindol-5-yl)-1,2,4-oxadiazole] |  | <6.5 |  | >5
5 | Cc1ccccc1-c1noc(-c2ccc3c(cnn3C(C)C)c2)n1 [Compound 329, 5-(1-isopropyl-1H-indazol-5-yl)-3-(o-tolyl)-1,2,4-oxadiazole] | > 75% | >6.5 | > 75% | >5
6 | CC(C)n1ncc2cc(-c3nc(-c4ccccc4Cl)no3)ccc21 [Compound 330, 3-(2-chlorophenyl)-5-(1-isopropyl-1H-indazol-5-yl)-1,2,4-oxadiazole] | > 75% | >6.5 | > 75% | >5
7 | CC(C)n1ncc2cc(-c3nc(-c4ccccc4OC(F)(F)F)no3)ccc21 [Compound 331, 5-(1-isopropyl-1H-indazol-5-yl)-3-(2-(trifluoromethoxy)phenyl)-1,2,4-oxadiazole] | > 75% | >6.5 | > 75% | >5
8 | CC(C)n1ncc2cc(-c3nc(-c4ccccc4Br)no3)ccc21 [Compound 332, 3-(2-bromophenyl)-5-(1-isopropyl-1H-indazol-5-yl)-1,2,4-oxadiazole] | > 75% | >6.5 | > 75% | >5
9 | CC(C)n1ncc2cc(-c3nc(-c4ccccc4O)no3)ccc21 [Compound 333, 2-(5-(1-isopropyl-1H-indazol-5-yl)-1,2,4-oxadiazol-3-yl)phenol] | > 75% | >6.5 | > 75% | <5
10 | CC(C)Oc1ccccc1-c1noc(-c2ccc3c(cnn3C(C)C)c2)n1 [Compound 334, 3-(2-isopropoxyphenyl)-5-(1-isopropyl-1H-indazol-5-yl)-1,2,4-oxadiazole] | > 75% | <6.5 | > 75% | <5
11 | COc1cccc(OC)c1-c1noc(-c2ccc3c(cnn3C(C)C)c2)n1 [Compound 335, 3-(2,6-dimethoxyphenyl)-5-(1-isopropylindazol-5-yl)-1,2,4-oxadiazole] | < 75% | <6.5 | < 75% | <5
12 | CC(C)n1ncc2cc(-c3nc(-c4cccc5c4OCO5)no3)ccc21 [Compound 336, 3-(benzo[d][1,3]dioxol-4-yl)-5-(1-isopropyl-1H-indazol-5-yl)-1,2,4-oxadiazole] | > 75% | >6.5 | < 75% | >5
13 | CC(C)n1ncc2cc(-c3nc(-c4cccc5c4OCCC5)no3)ccc21 [Compound 337, 3-chroman-8-yl-5-(1-isopropylindazol-5-yl)-1,2,4-oxadiazole] | > 75% | >6.5 | > 75% | >5
14 | COc1cccc(F)c1-c1noc(-c2ccc3c(cnn3C(C)C)c2)n1 [Compound 338, 3-(2-fluoro-6-methoxy-phenyl)-5-(1-isopropylindazol-5-yl)-1,2,4-oxadiazole] | > 75% | <6.5 | > 75% | <5
15 | N#Cc1cc(-c2nc(-c3ccc4c(c3)CCC(=O)N4)no2)ccc1NCCF [Compound 343, 2-[(2-fluoroethyl)amino]-5-[3-(2-oxo-1,2,3,4-tetrahydroquinolin-6-yl)-1,2,4-oxadiazol-5-yl]benzonitrile] | > 75% | >6.5 | > 75% | >5
16 | N#Cc1cc(-c2nc(-c3ccc4c(c3)CCC(=O)N4)no2)ccc1NCC(F)F [Compound 344, 2-[(2,2-difluoroethyl)amino]-5-[3-(2-oxo-1,2,3,4-tetrahydroquinolin-6-yl)-1,2,4-oxadiazol-5-yl]benzonitrile] | > 75% | >6.5 | > 75% | >5
17 | N#Cc1cc(-c2nc(-c3ccc4c(c3)CCC(=O)N4)no2)ccc1N [Compound 345, 2-amino-5-[3-(2-oxo-1,2,3,4-tetrahydroquinolin-6-yl)-1,2,4-oxadiazol-5-yl]benzonitrile] | < 75% | <6.5 | < 75% | <5
18 | C=C(F)CNc1ccc(-c2nc(-c3ccc4c(c3)CCC(=O)N4)no2)cc1C#N [Compound 346, 2-[(2-fluoroprop-2-en-1-yl)amino]-5-[3-(2-oxo-1,2,3,4-tetrahydroquinolin-6-yl)-1,2,4-oxadiazol-5-yl]benzonitrile] | > 75% | >6.5 | > 75% | >5
19 | CC(F)(F)CNc1ccc(-c2nc(-c3ccc4c(c3)CCC(=O)N4)no2)cc1C#N [Compound 347, 2-[(2,2-difluoropropyl)amino]-5-[3-(2-oxo-1,2,3,4-tetrahydroquinolin-6-yl)-1,2,4-oxadiazol-5-yl]benzonitrile] | > 75% | >6.5 | > 75% | >5

Continued, values first:

Row | Emax [1] | hS1P1 cAMP pEC50 [1] | Emax [2] | hS1P1 B-arrestin2 pEC50 [2] | SMILES
20 | > 75% | <6.5 | < 75% | >5 | CC(C)n1ccc2cc(-c3nc(-c4ccccc4OC(F)(F)F)no3)ccc21 [Compound 321, 5-(1-isopropyl-1H-indol-5-yl)-3-(2-(trifluoromethoxy)phenyl)-1,2,4-oxadiazole]
21 | > 75% | >6.5 | > 75% | >5 | CC(C)n1ccc2cc(-c3nc(-c4ccccc4Br)no3)ccc21 [Compound 322, 3-(2-bromophenyl)-5-(1-isopropyl-1H-indol-5-yl)-1,2,4-oxadiazole]
22 | > 75% | <6.5 | > 75% | <5 | CC(C)n1ccc2cc(-c3nc(-c4ccccc4O)no3)ccc21 [Compound 323, 2-(5-(1-isopropyl-1H-indol-5-yl)-1,2,4-oxadiazol-3-yl)phenol]
23 | < 75% | <6.5 | < 75% | <5 | CC(C)Oc1ccccc1-c1noc(-c2ccc3c(ccn3C(C)C)c2)n1 [Compound 324, 3-(2-isopropoxyphenyl)-5-(1-isopropyl-1H-indol-5-yl)-1,2,4-oxadiazole]
24 |  | <6.5 |  | >5 | COc1cccc(F)c1-c1noc(-c2ccc3c(ccn3C(C)C)c2)n1 [Compound 328, 3-(2-fluoro-6-methoxy-phenyl)-5-(1-isopropylindol-5-yl)-1,2,4-oxadiazole]
25 |  | <6.5 |  | <5 | COc1ccccc1-c1nnc(-c2ccc3[nH]oc(=O)c3c2)o1 [Compound 339, 5-[5-(2-methoxyphenyl)-1,3,4-oxadiazol-2-yl]-1,3-dihydro-2,1-benzoxazol-3-one]
26 |  | <6.5 |  | <5 | COc1ccccc1-c1nnc(-c2ccc3c(c2)c(=O)on3C)o1 [Compound 340, 5-[5-(2-methoxyphenyl)-1,3,4-oxadiazol-2-yl]-1-methyl-1,3-dihydro-2,1-benzoxazol-3-one]
27 |  | <6.5 |  | <5 | COc1ccccc1-c1nnc(-c2ccc3c(c2)CCC(=O)N3)o1 [Compound 341, 6-[5-(2-methoxyphenyl)-1,3,4-oxadiazol-2-yl]-1,2,3,4-tetrahydroquinolin-2-one]
28 | < 75% | <6.5 | < 75% | <5 | COC(=O)NS(=O)(=O)n1c(=O)oc2cc(-c3nnc(-c4ccccc4OC)o3)ccc21 [Compound 342, methyl N-({6-[5-(2-methoxyphenyl)-1,3,4-oxadiazol-2-yl]-2-oxo-2,3-dihydro-1,3-benzoxazol-3-yl}sulfonyl)carbamate]
29 | < 75% | >6.5 | < 75% | <5 | COc1ccccc1-c1nnc(-c2ccc3[nH]c(=O)oc3c2)o1 [Compound 349, 6-[5-(2-methoxyphenyl)-1,3,4-oxadiazol-2-yl]-2,3-dihydro-1,3-benzoxazol-2-one]
